According to patent publication US20230248745A1, “SILVER ENHANCED CANNABINOID ANTIBIOTICS” (priority 2020, published 2023):
Entries after “also recorded” stand apart in the source; their conditions may differ. Where two headings read alike, the source gives them in different places.

Columns and labels:
[1] = tested on: MRSA (USA300); experiment: Checkerboard assay, FICI of cannabinoid/silver combinations; format: cell-based, Methicillin-resistant Staphylococcus aureus
Experimental: (§1) Antibacterial growth was measured using a checkerboard analysis or qualitatively using agar plates with zones of inhibition. Viability was measured by the number of colony forming units (CFU) over time.
(§2) Using checkerboard analysis, the fractional inhibitory concentration index (FICI) was calculated for the 96-well plate test to illustrate synergy.
(§3) MRSA strain, USA300, was cultured in Luria-Bertani (LB) medium and inoculated at 37 C.
(§4) Cannabinoids or silver (expressed as the concentration of silver not the salt) were serially diluted 2-fold across the 96-well plate (Costar, catalog no. 3370) followed by addition of 100 μL of bacterial cultures with an OD600 of 0.0025. […] Wells turbidity were then analyzed using Varioskan™ microplate reader.
(§5) FICI was calculated in a checkerboard assay based on the turbidity of the wells. FIC of each agent was determined as the ratio of the minimal inhibitory concentration MIC of one agent in the presence of the other agent to the MIC of that agent alone. FICI was consequently computed as the sum of each agent's FIC.

[2] = tested on: E. coli strain K12; experiment: as above; format: cell-based, Escherichia coli; conditions: for FICI Silver Nanoparticles: Silver Nanoparticles in combination with the cannabinoid; for FICI Silver Sulfate: Silver Sulfate in combination with the cannabinoid
Experimental: as §1, §2
(§6) Escherichia coli (E. coli), strain K12, was cultured in Luria-Bertani (LB) medium and inoculated at 37 C.
as §4, §5

[3] = tested on: MRSA (strain USA300); experiment: microbe, parasite or virus in culture; format: cell-based, Methicillin-resistant Staphylococcus aureus; conditions: Staphylococcus aureus; agent alone; silver expressed as silver; read-out: MIC
Excerpt: In therapeutic applications, synergy between active ingredients occurs when an observed combined therapeutic effect is greater than the sum of therapeutic effects of individual active ingredients, or a new therapeutic effect is produced that the active ingredients could not produce alone. […] In this context, the enhancement of therapeutic effect may take the form of increased efficacy or potency and/or decreased adverse effects. The synergistic effect may be mediated in whole or in part by the pharmacokinetics and/or pharmacodynamics of the active ingredients in a subject, so that the amount and proportion of the ingredients in the formulation may be synergistic in vivo. This in vivo synergy may be effected with a formulation that includes the active ingredients in amounts and proportions that are also synergistic in in vitro assays of efficacy. As used herein, the term “synergistically effective amounts” accordingly refers to amounts that are synergistic in vivo and/or in vitro. A numeric quantification of synergy is often expressed as a fractional inhibitory concentration index (FICI), which represents the sum of the fractional inhibitory concentrations (FICs) of each drug tested, where the FIC is determined for each drug by dividing the minimum inhibitory concentration (MIC, the lowest concentration of the drug which prevents visible growth of the bacterium in a standard in vitro assay—standard colorometric assay based on resazurin) of each drug when used in combination by the MIC of each drug when used alone. In very general terms, a FICI lower or higher than 1 indicates positively correlated activity (at least additive or potentiation) or an absence of positive interactions, respectively. […] (as described and used by Joung D K et al. and Rakoliya K et al.)
as §4

[4] = tested on: MRSA (strain USA300); experiment: Kill-curve test (CFU over time); format: cell-based, Methicillin-resistant Staphylococcus aureus; conditions: for combined inhibitory effects compared to ½×MIC combinations: cannabinoid ¼×MIC + AgNPs
Experimental: as §1, §3
(§7) For each test tube, 1 mL of culture at OD600 of 0.005 was added to 1 mL of LB medium containing antibiotics to reach target sub-MIC concentrations of each compound. Samples of 100 μL was extracted from each tube at the determined time stamps followed by 10-fold serial dilutions. 10 μL of each dilution was then added on the LB agar plates that were subsequently incubated for 24 hours. Colonies were inspected and results quantified as log CFU/mL.

[5] = tested on: E. coli (strain K12); experiment: Kill-curve test (CFU over time); format: cell-based, Escherichia coli; conditions: for growth inhibition: 1.25 mg/L and 0.625 mg/L (lower concentrations)
Experimental: as §1, §6, §7

[6] = tested on: MRSA (strain USA 300); format: cell-based, Methicillin-resistant Staphylococcus aureus; conditions: for antibiotic effect of combination compared with silver nanoparticles alone: cannabinoid 2% + silver nanoparticles 2% silver w/w to PVA, films or coated catheter sections; for inhibition of bacterial growth (ring): single agent at 2% w/w to PVA, films and coated catheter sections, 24 hours
Experimental: PVA films were made by solvent casting using 33 μl drops of 2.5% PVA (88% hydrolyzed, 125 KDa molecular weight) mixed with CBC, CBG or CBGA (2% w/w to PVA). […] 3 mm sections of a urethral catheter (BARDEX® BARD®) were cut and coated with the same 33 μl volume of PVA/Silver/cannabinoid used to make films. Films and coated catheter sections were dried overnight in the dark. Five cavities were created in the LB agar plates containing MRSA (strain USA 300) at OD600 of 0.005. PVA films and catheters coated with PVA films were then placed in the cavities and moistened with 20 μL of deionized distilled water. Plates were incubated for 24 hours at 37° C.

[7] = tested on: MRSA; experiment: Agar plate test of CBGA with silver nanoparticles; format: cell-based, Methicillin-resistant Staphylococcus aureus
Experimental: Four LB agar plates were prepared with MRSA culture at OD600 of 0.005. (FIG. 4) Each plate contained different concentrations of CBGA (no CBGA, ½ MIC, ¼ MIC, and ⅛ MIC). All plates were then divided into quadrants, each of which received 8 μL of AgNP at different concentrations from 20 mg/L serially diluted by 2-fold down to 2.5 mg/L in 0.2 mM sodium citrate.

[8] = tested on: E. coli (strain K12); conditions: agent alone
Excerpt: In therapeutic applications, synergy between active ingredients occurs when an observed combined therapeutic effect is greater than the sum of therapeutic effects of individual active ingredients, or a new therapeutic effect is produced that the active ingredients could not produce alone. […] In this context, the enhancement of therapeutic effect may take the form of increased efficacy or potency and/or decreased adverse effects. The synergistic effect may be mediated in whole or in part by the pharmacokinetics and/or pharmacodynamics of the active ingredients in a subject, so that the amount and proportion of the ingredients in the formulation may be synergistic in vivo. This in vivo synergy may be effected with a formulation that includes the active ingredients in amounts and proportions that are also synergistic in in vitro assays of efficacy. […] A numeric quantification of synergy is often expressed as a fractional inhibitory concentration index (FICI), which represents the sum of the fractional inhibitory concentrations (FICs) of each drug tested, where the FIC is determined for each drug by dividing the minimum inhibitory concentration (MIC, the lowest concentration of the drug which prevents visible growth of the bacterium in a standard in vitro assay—standard colorometric assay based on resazurin) of each drug when used in combination by the MIC of each drug when used alone. […]

[9] = Silver Nanoparticles in combination with the cannabinoid
[10] = Silver Nitrate in combination with the cannabinoid
[11] = cannabinoid with silver nanoparticles
[12] = cannabinoid with silver nitrate
[13] = cannabinoid with silver sulfate
[14] = cannabinoid ½×MIC + AgNP 1/160×MIC (0.25 mg/L)
[15] = cannabinoid ½×MIC + AgNP ⅛×MIC (5 mg/L)
[16] = cannabinoid ½×MIC + silver nitrate 1 mg/L
[17] = cannabinoid ½×MIC + silver nitrate 5 and 8 mg/L
[18] = 8 mg/L cannabinoid + 2.5, 1.25 and 0.625 mg/L AgSO4 (each)

Structure (SMILES)	FICI [1, 9]	FICI [1, 10]	interaction (interpretation of FICI) [1, 11]	interaction (interpretation of FICI) [1, 12]	FICI Silver Nanoparticles [2]	FICI Silver Sulfate [2]	interaction (interpretation of FICI) [2, 11]	interaction (interpretation of FICI) [2, 13]	MIC [3] [µg/mL]	kill-curve effect (CFU) [4]	time for which bactericidal effect persisted [4] [h]	MRSA growth by 24 hours ([4]; cannabinoid alone at ½×MIC)	combined inhibitory effects compared to ½×MIC combinations [4]	kill-curve effect (CFU) [4, 14]	kill-curve effect (CFU) [4, 15]	time through which bactericidal effect persisted [4, 15] [h]	antibiotic effect of combination compared with silver nanoparticles alone [6]	inhibition of bacterial growth (ring) [6]	also measured
CCCCCc1cc(O)c2c(c1)OC(C)(CCC=C(C)C)C=C2 (stereo not shown) [CBC, cannabichromene]	0.141	0.375	synergistic	strongly synergistic	0.73	0.63	potentiation	potentiation	8	nearly identical full bactericidal effect	24	full bacterial growth had occurred; also recorded: returned to levels approximating that of 0×MIC treatment	weaker and less durable	strong bactericidal effect	full bactericidal effect	24	increased antibiotic effect	some level of inhibition	time of onset of bactericidal effect [4]: ≤ 2 h; duration of bacterial growth inhibition ([4]; cannabinoid alone at ½×MIC): 6 h; duration of strong inhibition ([4]; cannabinoid ¼×MIC + silver nitrate 1 mg/L): 6 h; kill-curve effect (CFU) ([4]; cannabinoid ¼×MIC + silver nitrate 5 and 8 mg/L): Almost identical results; time of onset of bactericidal effect [4, 15]: 2 h; effect at 24 hours [4, 16]: strong inhibition of bacterial growth; kill-curve effect (CFU) [4, 16]: complete bactericidal effect; time for which bactericidal effect remained [4, 16]: 6 h; time of onset of bactericidal effect [4, 16]: 2 h; kill-curve effect (CFU) [4, 17]: fully bactericidal; time of onset of bactericidal effect [4, 17]: 2 h; time through which bactericidal effect remained [4, 17]: 24 h; time through which bacterial growth was inhibited [5]: 24 h; time through which the effect persisted [5]: 24 h; time to the reduction in E. coli CFU [5]: ≤ 6 h; time through which E. coli growth was inhibited [5, 18]: 24 h; time to the reduction in E. coli CFU [5, 18]: ≤ 4 h; inhibitory effect on E. coli growth over 24 hours ([5]; cannabinoid alone, 8 mg/L): failed to achieve any inhibitory effect; inhibition of E. coli growth over 24 hours ([5]; cannabinoid alone, 16 mg/L): failed to achieve any inhibition; inhibition of E. coli growth (summary) ([5]; cannabinoid alone, concentrations up to 16 mg/L): fail to achieve any detectable inhibition
CCCCCc1cc(O)c(C/C=C(\C)CCC=C(C)C)c(O)c1C(=O)O [CBGA, cannabigerolic acid]	0.375	0.53	synergistic	partial synergy	0.73	0.75	potentiation	potentiation	4	nearly identical full bactericidal effect	24	returned to levels approximating that of 0×MIC treatment	weaker and less durable	strong bactericidal effect	full bactericidal effect	24	increased antibiotic effect	some level of inhibition	inhibition of MRSA growth ([7]; CBGA at ½ MIC in the agar): strong inhibition of MRSA growth in all wells; antibiotic effect ([7]; CBGA at ½ MIC in the agar + 20 mg/L silver nanoparticles): strongest antibiotic effect; inhibition of bacterial growth (darkening in the photo) ([7]; CBGA at ⅛ MIC or ¼ MIC in agar + AgNP 2.5-20 mg/L): concentration dependent darkening; antibiotic effect of combination compared with silver nitrate alone ([6]; cannabinoid 2% + silver nitrate 2% silver w/w to PVA): increased antibiotic effect
O=S(=O)([O-])[O-].[Ag+].[Ag+] [silver sulfate]																			MIC [8]: 2.5 µg/mL; growth inhibition ([5]; AgSO4 alone): very little inhibitory effects; growth inhibition ([5]; AgSO4 alone, listed as AgSO4): some initial growth inhibition; bactericidal effects (net reduction in bacterial CFU) ([5]; AgSO4 alone, 2.5 mg/L): no bactericidal effects; period of inhibition of E. coli growth ([5]; AgSO4 alone, 2.5 mg/L): 6 h; total increase in bacterial CFU at 24 hours ([5]; AgSO4 alone, 2.5 mg/L): approximately 1 log; inhibitory effect on E. coli growth (summary) ([5]; silver sulfate alone at 2.5 mg/L): weak inhibitory effect
